Several values for one entry are separate records, joined by “and”; a condition that tells them apart may be missing. Equal values may be shown once. Where a name gives a salt, the structure may show the parent alone.
Compound | melting point
Cc1cc(B(O)O)ccc1F [4-fluoro-3-methylbenzeneboronic acid] | 210 °C
CCOC(=O)C(=O)OCC [Diethyl oxalate] | -41 °C
CC(=O)OC(C)=O [Acetic anhydride] | -73 °C
CC(O)C1(O)CCC2C3CCC4(C)CC(O)CCC4(C)C3CCC21C (stereo not drawn) [5-methylpregnane-3,17,20-triol] | 219 °C
CCCOC(=O)c1ccc(O)cc1 [N-propyl 4-hydroxybenzoate] | 97 °C
COc1ccc(OC)c2c1C(=O)OC2O (stereo not drawn) [3-hydroxy-4,7-dimethoxy-2-benzofuran-1(3H)-one] | 192 °C
Cc1ccc(N)c([N+](=O)[O-])c1 [4-methyl-2-nitroaniline] | 117 °C
CN(C)CC(=O)O [Dimethylglycine] | 186 °C
CC12CCC(/C(=C/N(O)c3ccccc3)C1=O)C2(C)C (stereo not drawn) | 107 °C
CN1N=C(C(C)(C)C)CC1=O [3-tert-butyl-1-methyl-2-pyrazolin-5-one] | 149 °C
O=[N+]([O-])c1cccc(O)c1 [m-nitrophenol] | 98 °C
CN(C)c1ccc(N=O)cc1 [N,N-dimethyl-4-nitrosoaniline] | 86 °C
COC(=O)c1ccc(OC)c(OC)c1 [methyl_3,4-dimethoxybenzoate] | 60 °C
COC(=O)c1ccc(OC)cc1 [methyl_4-methoxybenzoate] | 50 °C
Ic1ccc(I)cc1 [1,4-diiodobenzene] | 131 °C
CCCCOC(=O)c1ccc(O)cc1 [butylparaben] | 68.5 °C
COc1ccc(C(=O)Nc2ccc(-c3ccc4nn(-c5ccccc5)nc4c3)cc2)cc1 | 106 °C
ClC1=C(Cl)C2(Cl)C3C4OC4C(Cl)C3C1(Cl)C2(Cl)Cl (stereo not drawn) [Heptachlor epoxide] | 160 °C
O=C4\C=C3/[C@]([C@H]2CC[C@]1([C@@H](CC[C@@]1(O)C)[C@@H]2CC3)C)(C)CC4 [17-methyltestosterone] | 164 °C
CCSc1ccc(B(O)O)cc1 [4-(ethylthio)benzeneboronic acid] | 105 °C
CO[C@@]12[C@H](COC(N)=O)C3=C(C(=O)C(C)=C(N)C3=O)N1C[C@@H]1N[C@@H]12 [mitomycin c] | 360 °C
Cc1ccccc1-n1c(C)nc2ccccc2c1=O [Methaqualone] | 113 °C
CC1CCC(C(C)C)C(O)C1 (stereo not drawn) [2-Isopropyl-5-methylcyclohexanol] | 34.5 °C

Compound | melting point
OCc1ccncc1 [4-pyridinemethanol] | 54 °C
CC(=O)OCC(OC(C)=O)C(OC(C)=O)C(OC(C)=O)C(OC(C)=O)C(=O)O (stereo not drawn) [2,3,4,5,6-penta(acetyloxy)hexanoic acid] | 110 °C
OCc1cccc(O)c1 [3-hydroxybenzyl_alcohol] | 72 °C
Cc1ccc(Cl)cc1[N+](=O)[O-] [4-chloro-2-nitrotoluene] | 39 °C
C[C@@H](CO)NC(=O)OC(C)(C)C [N-boc-L-alaninol] | 59 °C
COC(=O)c1ccc(N)nc1 [methyl 6-aminonicotinate] | 155 °C
OB(O)c1cc(C(F)(F)F)ccc1F [2-fluoro-5-(trifluoromethyl)benzeneboronic acid] | 107 °C
CC(=O)Oc1ccc(OC(C)=O)cc1 [hydroquinone_diacetate] | 125 °C
O=C1CCCCC1 [cyclohexanone] | -29 °C and -27.9 °C
Fc1ccccc1 [Fluorobenzene] | -40 °C
OC(c1ccccc1)(c1ccccc1)c1ccccc1 [Triphenylmethanol] | 163 °C
CN=C=O [Isocyanatomethane] | -80 °C
CC(C)(c1ccc(O)cc1)c1ccc(O)cc1 [bisphenol a] | 156 °C
N#Cc1cccc(C(=O)O)c1 [3-cyanobenzoic acid] | 222 °C
Cc1ccc(C(C)(C)C)cc1 [1-tert-Butyl-4-methylbenzene] | -52 °C
CCOC(N)=O [Ethyl carbamate] | 49 °C
CC(=O)CCC(=O)O [Laevulinic Acid] | 33 °C
CC12CCC3C(CCC4CC(=O)CCC43C)C1CCC2O (stereo not drawn) [17-hydroxyandrostan-3-one] | 121 °C
ClC(Br)Br [chlorodibromomethane] | -22 °C
OB(O)c1ccc(Cl)nc1 [6-chloropyridine-3-boronic acid] | 156 °C
COC(=O)c1cccc(O)c1 [methyl_3-hydroxybenzoate] | 74 °C
CCN(C(C)C)C(C)C [N-ethyldiisopropylamine] | -46 °C
CCCCCCCCCCCC(=O)O [Lauric acid] | 45 °C

Compound | melting point
O=C(O)c1ccc([N+](=O)[O-])cc1 [4-Nitrobenzoic acid] | 240 °C
CC12C=CC(O1)C1C(=O)OC(=O)C12 (stereo not drawn) | 70 °C
Nc1ccccc1N [Benzene-1,2-diamine] | 102 °C
Cc1ccc(C(=O)O)cc1 [4-Methylbenzoic acid] | 180 °C
OB(O)c1ccccc1OCc1ccccc1 [2-benzyloxybenzeneboronic acid] | 98 °C
N#CCc1ccc(O)cc1 [4-hydroxybenzyl_cyanide] | 71 °C
Nc1cccnc1N [2,3-diaminopyridine] | 112 °C
CC(=O)CC(=O)Nc1ccccc1 [3-Oxo-N-phenylbutanamide] | 86 °C
Nc1ccccc1B(O)O [2-aminobenzeneboronic acid] | 189 °C
O=C(CCl)OC(=O)CCl [chloroacetic anhydride] | 58 °C
O=C1C=C(c2ccccc2)c2ccccc21 [3-phenyl-1H-inden-1-one] | 51 °C
Nc1ccc(I)cc1 [4-iodoaniline] | 63 °C
OC1OC[C@@H](O)[C@H](O)[C@H]1O (stereo partly drawn) [D-xylose] | 149 °C
Nc1ncc(C(F)(F)F)cc1Br [2-amino-3-bromo-5-(trifluoromethyl)pyridine] | 100 °C
COc1ccc(C(=O)O)cc1Br [3-bromo-4-methoxybenzoic acid] | 220 °C
O=C(O)CCCCCCC[C@H](O)[C@H](O)CCCCCCO [erythro-aleuritic acid] | 99 °C
CCC=O [propanal] | -80 °C
N#CCc1ccc(N)cc1 [4-aminophenylacetonitrile] | 44 °C
C=Cc1ccc(C)cc1 [4-methylstyrene] | -34 °C
COC(=O)c1cc(Cl)ccc1N [methyl 2-amino-5-chlorobenzoate] | 69 °C
Cc1cc(C(C)(C)C)c(O)c(C(C)(C)C)c1 [2,6-di-tert-butyl-4-methylphenol] | 71 °C
CC(C)(C)Cl [2-chloro-2-methylpropane] | -25 °C

Continued, values first:

melting point | Compound
101 °C | O=[N+]([O-])c1cccnc1Cl [2-chloro-3-nitropyridine]
224 °C | CN(C)C(=N)NC(=N)N [Metformin]
230 °C | CCn1cc(C(=O)O)c(=O)c2ccc(C)nc21 [Nalidixic Acid]
277 °C | Cc1cc(/C=C2\SC(=Nc3ccccc3)N=C2O)c(C)n1-c1ccccn1 [OSM-S-51]
147 °C | CC[C@H](C)[C@H](NC(=O)OCC1c2ccccc2-c2ccccc21)C(=O)O [N-fmoc-L-isoleucine]
134 °C | CC(=O)OC1COC(C#N)C(OC(C)=O)C1OC(C)=O (stereo not drawn)
250 °C | Cc1ccc(B(O)O)cc1N [3-amino-4-methylbenzeneboronic acid]
69 °C | C=CS(=O)(=O)c1ccccc1 [phenyl vinyl sulfone]
-27 °C | Cc1ccccc1Br [2-bromotoluene]
-107 °C | CC(C)CC(C)(C)C [2,2,4-Trimethylpentane]
-95 °C | C1COCO1 [1,3-dioxolane]
-2 °C | O=C1CCCCCO1 [epsilon-caprolactone]
-12 °C | COC(=O)c1ccccc1 [methyl_benzoate]
345 °C | O=C(O)c1cc(=O)[nH]c(=O)[nH]1 [Cholergol]
-64 °C | CCNc1ccccc1 [N-ethylaniline]
274 °C | N[C@H](Cc1ccccc1)C(=O)O [D-Phenylalanine]
-51 °C | O=C1CCCC1 [cyclopentanone]
111 °C | CC1(c2ccccc2B(O)O)OCCO1 [2-(2-methyl-1,3-dioxolan-2-yl)benzeneboronic acid]

melting point | Compound
-116 °C | CCCCS [Butane-1-thiol]
76 °C | Cc1ccc(C)c(O)c1 [2,5-dimethylphenol]
87 °C | Clc1ccc(COC(Cn2ccnc2)c2ccc(Cl)cc2Cl)cc1 (stereo not drawn) [econazole]
51 °C | CCSc1ncccc1C(=O)Cl [2-(ethylthio)nicotinoyl chloride]
150 °C | CC(=O)N/C=C/c1ccccc1[N+](=O)[O-] [N-[(E)-2-(2-nitrophenyl)ethenyl]acetamide]
166 °C | O=C(O)CC(CC(=O)O)c1ccc(Cl)cc1 [3-(4-chlorophenyl)glutaric acid]
81 °C | CCOC(=O)N1C(=O)c2ccccc2C1=O [N-(ethoxycarbonyl)phthalimide]
70 °C | CC1(C)C=C(C(=O)O)C1 [Acid 9 (No name)]
66 °C | CN(N)c1ccc(C(F)(F)F)cc1[N+](=O)[O-] [N-methyl-N-[2-nitro-4-(trifluoromethyl)phenyl]hydrazine]
62 °C | O=C1CCSCC1 [tetrahydro-4h-thiopyran-4-one]
227 °C | Cc1ccc(B(O)O)cc1Cl [3-chloro-4-methylbenzeneboronic acid]
240 °C | Cc1cc(B(O)O)ccc1Cl [4-chloro-3-methylbenzeneboronic acid]
41 °C | CCCCc1ccc(C#Cc2ccc(CCCC)cc2)cc1 [1-n-butyl-4-[(4-butylphenyl)ethynyl]benzene]
134 °C | Cc1ccc(C)c(C(=O)O)c1 [2,5-dimethylbenzoic acid]
-10 °C | O=C(C=C/C(=O)OCC)OCC [diethyl_maleate]
67.8 °C | CC(=O)[C@H]1C[C@@H](CC(=O)O)C1(C)C [[(1S,3S)-3-Acetyl-2,2-dimethylcyclobutyl]acetic acid]
-94 °C (2×) and -93.9 °C | C1CCCC1 [cyclopentane]

From the Bradley open melting point set (2014)
